Reference: patent EP2289882A1, “3-oxopiperazinium derivatives as agonists of nerve growth factor and their use as medicaments” (Institut d'Investigacions Biomédiques August PI I Sunyer, priority 2009, dated 2011)

How the values were obtained:
[1] = system: RN22 cells; test: RN22 cell survival assay under CuSO4 stress (MTT); assay type: cell-based, rat; settings: CuSO4 150 µM stress, 1 ng/ml - 10 µg/ml, 24 h; RN22 expresses p75 but not TrkA
Experimental: Compounds identified from the initial library screening were also tested to assess their capacity to promote cell survival. To delineate p75 signalling independent of TrkA, we used a rat schwannoma cell line (RN22) expressing p75, but not TrkA, (Gentry et al., 2000). Cell culture. The rat schawnnoma cell line RN22 was cultured in 5% CO2 at 37°C in Dulbecco's modified Eagle's medium (DMEM) with 10% fetal bovine serum (FBS) and penicillin/streptomycin. RN22 cells were plated at 20,000 cells/well on a 24-well plate in DMEM alone and after allowing the cells to adhere for 3 days, cupper sulphate (CuSO4) (150 µM) was added with or without NGF (100 ng/ml) or the peptidomimetic molecules A26-23, A26-24 and A28-A6 at different concentrations (1 ng/ml - 10 µg/ml) to generate stress and cell death. After 24 h cell viability was studied by determining the amount of yellow MTT (Sigma) that was reduced to insoluble purple formazan. After removing the medium, the water-insoluble formazan was solubilised with DMSO (Sigma), and the dissolved material was measured spectrophotometrically at a wavelength of 570 nm, subtracting the background at 650 nm (Frade, 2005).

[2] = system: PC12 cells; test: PC12 cell differentiation (neurite outgrowth); assay type: cell-based; settings: 3 days, 2 ng/ml to 50 µg/ml, reduced serum (0.5% FBS and 1% HS); compared with NGF 100 ng/ml
Experimental: PC 12 cell differentiation was measured by plating cells onto collagen-coated 24-wells plates. NGF (100 ng/ml) or the small chemicals at different concentrations were added and the percentage of cells with neurite processes greater than two cell bodies in length were counted after relevant treatment. For each experiment at least 300 cells were randomly measured (Burstein and Greene, 1978). Cell culture. PC12 cells were maintained at 37°C in DMEM supplemented with 2.5% FBS, 15% of Horse serum (HS) and penicillin/streptomycin in a humidified 5% CO2 incubator. The cells were grown on 60-and 100-mm tissue culture dishes (Becton Dickinson). PC 12 cells were cultured for 3 days in the presence of the peptoids (from 2 ng/ml to 50 µg/ml) under reduced serum conditions (0.5% FBS and 1% HS).

Molecule	survival of RN22 cells (cell viability, MTT) [1]	differentiation of PC12 cells (percentage of cells with neurite processes greater than two cell bodies in length) [2]
8-[2-(2-(5-methyl-1H-indol-2-yl)ethylamino)-2-oxoethyl]-7-oxo-8-aza-5-azoniaspiro[4.5]decane [A28-A6]	not to promote survival of RN22 cells	induce the differentiation of PC12 cells at different concentrations to an extent substantially comparable with that induce by NGF
C[N+]1(C)CCN(CC(=O)NCCc2ccc([N+](=O)[O-])cc2)C(=O)C1.[Cl-] [A26-23, 1,1-dimethyl-4-[2-(4-nitrophenethylamino) -2-oxoethyl] -3-oxopiperazinium chloride]	not to promote survival of RN22 cells	induce the differentiation of PC12 cells at different concentrations to an extent substantially comparable with that induce by NGF
C[N+]1(Cc2ccccc2)CCN(CC(=O)NCCc2ccc([N+](=O)[O-])cc2)C(=O)C1.[Cl-] (stereo not drawn) [A26-64, 1-benzyl-1-methyl-4-[2-(4-nitrophenethylamino)-2-oxoethyl]-3-oxopiperazinium chloride]	not to promote survival of RN22 cells	induce the differentiation of PC12 cells at different concentrations to an extent substantially comparable with that induce by NGF
